# In ChEMBL document CHEMBL1201862, “PubChem BioAssay data set” (2004):
# Where a name gives a salt, the structure may show the parent alone. The source made the active and inactive calls.
# Assays:
# Aminopeptidase N = biological target: T1, Aminopeptidase N (Plasmodium falciparum FcB1/Columbia, UniProt O96935); assay: malaria alanyl aminopeptidase activity blockers – biochemical, fluorogenic H-Leu-NHMec substrate, 1536-well (AID 1445); design: species or system Plasmodium falciparum 3D7, 3D7
# T1 sequence (O96935 whole entry): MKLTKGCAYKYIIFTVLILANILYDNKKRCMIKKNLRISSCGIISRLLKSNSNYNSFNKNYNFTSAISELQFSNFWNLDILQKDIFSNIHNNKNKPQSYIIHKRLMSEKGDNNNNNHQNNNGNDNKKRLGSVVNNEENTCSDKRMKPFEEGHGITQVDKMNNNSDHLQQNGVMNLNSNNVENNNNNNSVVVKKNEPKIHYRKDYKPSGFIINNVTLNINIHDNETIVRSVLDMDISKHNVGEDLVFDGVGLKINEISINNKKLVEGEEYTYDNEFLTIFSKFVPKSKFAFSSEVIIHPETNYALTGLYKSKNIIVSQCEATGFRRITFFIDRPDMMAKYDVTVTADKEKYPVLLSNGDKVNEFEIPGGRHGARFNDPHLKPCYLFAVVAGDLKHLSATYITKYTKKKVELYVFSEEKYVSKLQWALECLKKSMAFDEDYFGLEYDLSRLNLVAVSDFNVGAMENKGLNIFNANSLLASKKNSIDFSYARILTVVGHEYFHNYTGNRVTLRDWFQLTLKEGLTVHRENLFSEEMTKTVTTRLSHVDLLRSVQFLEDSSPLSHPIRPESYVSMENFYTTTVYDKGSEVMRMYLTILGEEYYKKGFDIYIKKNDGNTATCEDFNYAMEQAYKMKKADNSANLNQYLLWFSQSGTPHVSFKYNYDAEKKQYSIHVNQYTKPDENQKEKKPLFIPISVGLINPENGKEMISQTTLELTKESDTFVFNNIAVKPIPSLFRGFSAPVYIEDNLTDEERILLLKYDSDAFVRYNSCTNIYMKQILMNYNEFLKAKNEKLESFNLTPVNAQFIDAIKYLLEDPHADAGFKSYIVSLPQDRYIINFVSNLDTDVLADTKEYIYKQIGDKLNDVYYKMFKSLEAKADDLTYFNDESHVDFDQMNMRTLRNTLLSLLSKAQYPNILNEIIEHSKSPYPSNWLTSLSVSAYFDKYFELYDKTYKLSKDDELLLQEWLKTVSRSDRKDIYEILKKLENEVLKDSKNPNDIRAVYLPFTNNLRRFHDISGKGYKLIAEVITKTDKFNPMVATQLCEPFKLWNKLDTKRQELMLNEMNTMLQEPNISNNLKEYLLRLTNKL
# [1] = biological target: T2, Replicative DNA helicase DnaB (Mycobacterium tuberculosis, UniProt P9WMR3); assay: DnaB intein splicing inhibitors, dose response, biochemical, cell-free fluorescence (AID 449749); format: functional
# T2 sequence (P9WMR3 whole entry): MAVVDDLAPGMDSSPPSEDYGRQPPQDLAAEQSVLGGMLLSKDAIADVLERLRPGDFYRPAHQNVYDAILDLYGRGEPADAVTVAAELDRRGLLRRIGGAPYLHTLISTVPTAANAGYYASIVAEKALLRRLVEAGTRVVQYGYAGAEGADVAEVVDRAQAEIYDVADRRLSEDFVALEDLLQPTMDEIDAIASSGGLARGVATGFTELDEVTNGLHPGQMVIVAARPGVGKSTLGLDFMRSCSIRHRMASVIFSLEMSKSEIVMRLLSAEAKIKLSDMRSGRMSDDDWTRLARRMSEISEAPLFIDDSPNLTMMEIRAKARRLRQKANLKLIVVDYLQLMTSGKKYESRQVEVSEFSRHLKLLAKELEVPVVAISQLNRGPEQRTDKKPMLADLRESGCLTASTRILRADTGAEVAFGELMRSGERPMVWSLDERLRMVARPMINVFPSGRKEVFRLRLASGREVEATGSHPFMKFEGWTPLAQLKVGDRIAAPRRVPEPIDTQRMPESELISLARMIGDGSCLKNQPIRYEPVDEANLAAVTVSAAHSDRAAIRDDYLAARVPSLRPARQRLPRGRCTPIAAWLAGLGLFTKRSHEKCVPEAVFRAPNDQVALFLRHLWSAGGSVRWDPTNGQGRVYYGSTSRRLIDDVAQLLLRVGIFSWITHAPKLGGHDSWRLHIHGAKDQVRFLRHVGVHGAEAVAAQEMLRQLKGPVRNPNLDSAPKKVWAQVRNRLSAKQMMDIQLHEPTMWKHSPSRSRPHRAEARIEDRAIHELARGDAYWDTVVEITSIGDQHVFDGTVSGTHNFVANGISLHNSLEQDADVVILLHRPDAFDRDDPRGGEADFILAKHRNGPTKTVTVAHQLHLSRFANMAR
# [2] = bead-based luminescence quenchers, dual-tagged ARNT – biochemical, AlphaScreen, cherry-pick, artefact control for ARNT-TACC3 interaction inhibitor project, dose response (AID 651705); format: functional;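 also: AlphaScreen bead proximity signal that flags compounds interfering with the detection technology; potency reflects signal decrease which marks the compound as an assay artifact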
# Protein RecA = biological target: T3, Protein RecA (Mycobacterium tuberculosis, UniProt P9WHJ3); assay: Fluorescence Cell-Free Homogeneous Dose Retest to Identify Inhibitors of RecA-Intein Splicing Activity. [Related pubchem assays (depositor defined):AID2097, AID2223, AID489010, AID492950]; format: functional
# T3 sequence (P9WHJ3 whole entry): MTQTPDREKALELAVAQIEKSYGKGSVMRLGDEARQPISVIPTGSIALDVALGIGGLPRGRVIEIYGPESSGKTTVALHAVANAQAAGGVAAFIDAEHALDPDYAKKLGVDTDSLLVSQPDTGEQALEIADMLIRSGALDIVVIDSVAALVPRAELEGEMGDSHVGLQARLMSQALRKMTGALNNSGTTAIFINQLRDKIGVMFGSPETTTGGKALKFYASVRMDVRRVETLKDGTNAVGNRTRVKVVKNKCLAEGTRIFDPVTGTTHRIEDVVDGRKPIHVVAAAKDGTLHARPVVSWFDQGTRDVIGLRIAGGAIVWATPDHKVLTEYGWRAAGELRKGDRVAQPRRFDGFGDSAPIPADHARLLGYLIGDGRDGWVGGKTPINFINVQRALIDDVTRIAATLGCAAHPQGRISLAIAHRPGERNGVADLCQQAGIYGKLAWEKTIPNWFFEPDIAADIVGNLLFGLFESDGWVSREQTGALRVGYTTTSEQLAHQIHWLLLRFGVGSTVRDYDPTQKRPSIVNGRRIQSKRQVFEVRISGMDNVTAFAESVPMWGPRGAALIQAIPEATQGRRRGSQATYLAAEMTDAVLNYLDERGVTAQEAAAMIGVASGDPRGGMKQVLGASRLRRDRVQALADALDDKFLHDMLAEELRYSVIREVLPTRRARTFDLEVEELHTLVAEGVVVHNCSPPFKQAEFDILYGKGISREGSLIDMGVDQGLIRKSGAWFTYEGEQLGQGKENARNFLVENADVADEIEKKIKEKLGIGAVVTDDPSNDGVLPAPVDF
# cells = format: functional
# Protein skinhead-1 = biological target: T4, Protein skinhead-1 (Caenorhabditis elegans, UniProt P34707); format: functional
# T4 sequence (P34707 whole entry): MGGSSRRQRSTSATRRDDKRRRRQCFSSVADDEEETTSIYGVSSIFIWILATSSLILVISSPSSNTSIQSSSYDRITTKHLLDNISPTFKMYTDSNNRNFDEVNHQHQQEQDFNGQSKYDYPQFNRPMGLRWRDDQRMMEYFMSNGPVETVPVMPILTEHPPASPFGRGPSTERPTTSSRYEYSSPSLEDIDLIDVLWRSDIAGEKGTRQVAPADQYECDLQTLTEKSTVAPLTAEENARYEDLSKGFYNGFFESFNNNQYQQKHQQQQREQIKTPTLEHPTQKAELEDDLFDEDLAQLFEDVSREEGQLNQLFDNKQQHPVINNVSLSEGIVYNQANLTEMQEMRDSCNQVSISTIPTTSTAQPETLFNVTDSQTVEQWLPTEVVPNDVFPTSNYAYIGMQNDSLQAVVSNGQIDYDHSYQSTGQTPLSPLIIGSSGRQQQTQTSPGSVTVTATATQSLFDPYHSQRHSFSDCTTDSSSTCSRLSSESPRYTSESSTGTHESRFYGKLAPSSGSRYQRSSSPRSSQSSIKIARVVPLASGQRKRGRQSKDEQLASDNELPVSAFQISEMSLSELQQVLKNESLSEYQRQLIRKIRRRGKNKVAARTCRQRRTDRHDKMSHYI
# [3] = biological target: T5, Corticotropin-releasing factor receptor 2/Corticotropin-releasing factor-binding protein (Homo sapiens, UniProt P24387+Q13324); assay: activators of CRF receptor 2 with binding protein – uHTS hits, confirmation (AID 602473); format: functional; conditions: read-out: EC50_Mean
# T5 sequence (Q13324 whole entry): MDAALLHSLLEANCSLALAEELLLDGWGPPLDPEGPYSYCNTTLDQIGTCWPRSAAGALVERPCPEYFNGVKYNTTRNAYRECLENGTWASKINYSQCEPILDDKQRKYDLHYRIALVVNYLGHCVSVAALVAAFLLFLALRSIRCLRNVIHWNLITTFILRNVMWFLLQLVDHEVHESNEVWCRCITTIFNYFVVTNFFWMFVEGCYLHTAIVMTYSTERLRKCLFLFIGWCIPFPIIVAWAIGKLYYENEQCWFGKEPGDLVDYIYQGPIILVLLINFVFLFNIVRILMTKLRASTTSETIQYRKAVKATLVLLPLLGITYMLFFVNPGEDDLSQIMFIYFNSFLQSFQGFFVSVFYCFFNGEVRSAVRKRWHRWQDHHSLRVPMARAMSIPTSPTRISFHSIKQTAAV
# T5 sequence (P24387 whole entry): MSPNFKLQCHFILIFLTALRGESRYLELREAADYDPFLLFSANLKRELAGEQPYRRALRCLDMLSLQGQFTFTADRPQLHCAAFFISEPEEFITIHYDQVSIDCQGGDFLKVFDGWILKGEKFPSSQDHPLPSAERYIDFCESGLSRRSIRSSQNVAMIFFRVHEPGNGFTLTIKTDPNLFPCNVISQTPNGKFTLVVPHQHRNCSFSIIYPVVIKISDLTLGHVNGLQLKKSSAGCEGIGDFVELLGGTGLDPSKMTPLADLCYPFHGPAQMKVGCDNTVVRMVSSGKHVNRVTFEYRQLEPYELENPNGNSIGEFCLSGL
# [4] = biological target: T5, Corticotropin-releasing factor receptor 2/Corticotropin-releasing factor-binding protein; assay: Dose Response confirmation of uHTS hits for small molecule antagonists of the CRF-binding protein and CRF-R2 receptor complex.; format: functional; conditions: read-out: IC50_Mean
# [5] = blockers of CRF-binding protein–CRF-R2 complex – cell-based, uHTS hits, 384-well, dose response (AID 651639); format: functional, Homo sapiens; conditions: read-out: IC50_Mean
# [6] = biological target: T6, Hepatocyte nuclear factor 4-alpha (Homo sapiens, UniProt P41235); format: functional, cell-based;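 also: biochemical luminescence-based dose-response counterscreen measuring inhibition of HNF4 dimerization, run alongside a screen for blockers of ABHD5–perilipin-5 interaction; split luciferase complementation of HNF4 fusion proteins in cell lysate measuring dimerization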
# T6 sequence (P41235 whole entry): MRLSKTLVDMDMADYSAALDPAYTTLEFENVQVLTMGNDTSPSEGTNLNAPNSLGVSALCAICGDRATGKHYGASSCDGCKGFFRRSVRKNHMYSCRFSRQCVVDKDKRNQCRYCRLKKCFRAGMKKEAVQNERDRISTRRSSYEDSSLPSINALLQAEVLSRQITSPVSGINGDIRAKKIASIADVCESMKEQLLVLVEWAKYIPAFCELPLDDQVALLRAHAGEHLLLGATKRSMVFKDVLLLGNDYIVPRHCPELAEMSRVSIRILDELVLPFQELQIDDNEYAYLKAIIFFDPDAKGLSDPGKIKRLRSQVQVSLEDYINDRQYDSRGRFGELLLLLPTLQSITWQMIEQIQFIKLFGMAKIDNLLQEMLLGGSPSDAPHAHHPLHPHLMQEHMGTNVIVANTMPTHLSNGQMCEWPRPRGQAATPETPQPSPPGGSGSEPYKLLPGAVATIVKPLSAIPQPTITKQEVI
# [7] = NIH3T3 cell viability loss – ATP luminescence, mouse fibroblasts, counter-screen, dose response (AID 2010); format: functional, cell-based;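 also: cells exposed to compound for about 90 hours before reading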
# [8] = test system: Streptococcus sp. 'group A'; assay: Streptococcus pyogenes SK(-)GAS viability under kanamycin – luminescence, BacTiterGlo, confirmation, counter-screen for streptokinase expression inhibitor project, dose response (AID 1900); format: functional, organism-based
# [9] = Trypanosoma cruzi growth suppression in host cells – NIH3T3 host cells, beta-gal luminescence, confirmation (AID 2044); format: functional, cell-based;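 also: intracellular parasites grown in NIH/3T3 mouse fibroblasts as host cells; luminescent beta-galactosidase reporter signal from transgenic T. cruzi replicating inside host cells; inhibitors lower the luminescence signal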
# Streptococcus = assay: GAS UMAA2166 growth inhibition – luminescence, BacTiterGlo, counter-screen for streptokinase expression inhibitor project, dose response (AID 1915); format: functional, organism-based;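 also: potency for reduction of bacterial viability or growth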
# [10] = viability of PTEN-deleted HCT116 cells – cell-based, HCT116 PTEN knockout, dose response (AID 1047); format: functional;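 also: HCT116 colon tumor cells with PTEN knocked out; cells exposed to compound for 60 hours before readout; potency for loss of cell viability measured by luminescence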
# [11] = biological target: Heat shock protein HSP 90-alpha (Homo sapiens, UniProt P07900); format: functional, organism-based
# [12] = viability of HCT116 lacking mutant beta-catenin – cell-based, human colon tumor, dose response (AID 1045); format: functional;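 also: HCT116 colon tumor cells with beta catenin knocked out; cells exposed to compound for 60 hours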
# [13] = Luminescence Cell-Based Dose Retest to Confirm Inhibitors of Cancer Stem Cells. [Related pubchem assays (depositor defined):AID2717, AID2721]; format: functional; conditions: Homo sapiens
# INS1 = assay: INS-1E survival protection against cytokine death – cell-based, luminescence, retest, dose response (AID 449756); format: functional; conditions: Rattus norvegicus;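 also: cell death triggered by IL-1 beta plus TNF-alpha plus IFN-gamma mixture; protective hits raise ATP signal compared with cytokine alone wells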
smiles,measurement,setting,value
O=C1NC(=O)C(=NNc2cc([N+](=O)[O-])ccc2O)C(=O)N1,IC50,Aminopeptidase N,11.4 µM (active)
same,AC50,[1],4.84 µM (active)
same,AC50,[2],111 µM (active)
same,EC50,Protein RecA,3.79 µM (active)
Cc1cc(C)n(-c2ccc(C(=O)Oc3ccc4c(c3)OCO4)cc2)n1,IC50,cells,6.28 µM (active)
same,IC50,Protein skinhead-1,> 100 µM (inactive)
same,EC50,[3],> 53 µM (inactive)
same,IC50,[4],9.66 µM (active)
same,IC50,[5],> 20 µM (inactive)
C=C[C@]1(C)C[C@@H](OC(=O)CSCCN(CC)CC)[C@]2(C)[C@H](C)CC[C@]3(CCC(=O)[C@H]32)[C@@H](C)[C@@H]1O [TIAMULIN FUMARATE],IC50,[6],39.8 µM (inactive)
same,EC50,[7],> 60 µM (not active)
same,EC50,[8],< 0.06 µM (active)
same,EC50,[9],1.75 µM (active)
same,EC50,Streptococcus,< 0.06 µM (active)
O=[N+]([O-])/C=C/c1cn(Cc2ccc(F)cc2)c2ccccc12,IC50,[6],4.49 µM (active)
same,EC50,[10],15.2 µM (active)
same,AC50,[11],8.8 µM (active)
same,EC50,[12],16.4 µM (active)
same,AC50,[13],3.2 µM (active)
same,AC50,INS1,16.9 µM (active)
O=C1NC(=S)S/C1=C\c1cc(Cl)ccc1Cl,EC50,[3],> 53 µM (inactive)
same,IC50,[4],2.87 µM (active)
same,IC50,[5],9.52 µM (active)
CC(=O)NC(Cc1ccc(C(C)C)cc1)C(=O)NC1CCN(C(=O)c2cccc(C)c2)CC1 (stereo unspecified),EC50,[3],> 53 µM (inactive)
same,IC50,[4],24.4 µM (active)
same,IC50,[5],10.8 µM (active)
